Read-outs that look alike come from different tables or passages of the source.

A word on the melting point: it is the temperature, or range, at which the solid turns liquid.

Data set [1] relates to SK-MEL-28 melanoma cell line. Nature of the data set: MTT cell proliferation assay in melanoma cells. The following applies: SK-MEL-28, after 6 days of treatment, read-out: Half-maximal inhibitory concentration (IC50). In kind it is cell-based, human. The source says: Antifolate compounds are designed to inhibit DHFR and act specifically during DNA and RNA synthesis, making them more toxic to rapidly dividing cells. Recent evidences indicate that tea-catechins and derived compounds could inhibit DHFR and block the folate cycle in cancer cells. Although inhibition of DHFR by these compounds could be a plausible explanation for their antifolate activity, the possibility of these compounds targeting (folate)-enzymes other than DHFR could not be excluded. To determine whether these newly synthetized compounds disrupt the folate cycle in cell culture, we studied their antiproliferative activity in the melanoma cell line SK-MEL-28 (Table 3). Concentration- and time-dependent effects were analyzed using the colorimetric 4,5-(3)-dimethylthiazol-2-yl)-2,5-diphenyltetrazolium bromide (MTT) method.
The human melanoma cell line SK-MEL-28 was obtained from American Type Culture Collection (ATCC, Manassas, VA, USA) and was maintained in Eagles’s Minimum Essential Medium (EMEM) supplemented with 10% (v/v) FBS and antibiotics at 37 °C in a humidified atmosphere containing 7.5% CO2. Cell viability was evaluated using the MTT cell proliferation assay. Cells were evaluated for apoptosis using a cell death detection ELISA (Cell Death Detection ELISAPLUS, Roche Diagnostics, Barcelona, Spain). The principle of this test is the detection of mono- and oligonucleosomes in the cytoplasmic fractions of cell lysates using biotinylated anti-histone and peroxidase-coupled anti-DNA antibodies. The amount of nucleosomes is photometrically quantified at 405 nm by the peroxidase activity retained in the immunocomplexes. Apoptosis was defined as the specific enrichment of mono- and oligonucleosomes in the cytoplasm and was calculated by dividing the absorbance of treated samples with the absorbance of untreated samples after correcting for the number of cells. The induction of apoptosis in each melanoma cell line after a 7 h treatment with 2 μM staurosporin (100% apoptotic cells) was used to calculate the number of apoptotic cells. For these assays, cells were plated in a 96-well plate at a density of 1000–2000 cells/well. Compounds were added once at the beginning of the experiments.
Background: Tetrazolium assays rely on reduction of a dye to a coloured formazan, in cell work by metabolically active cells.

Data set [2] addresses T1, free recombinant human DHFR (rHDHFR) (Homo sapiens, UniProt P00374).
T1 construct: made in house; host or cells: Bombyx mori chrysalides
T1 sequence (P00374 1-187): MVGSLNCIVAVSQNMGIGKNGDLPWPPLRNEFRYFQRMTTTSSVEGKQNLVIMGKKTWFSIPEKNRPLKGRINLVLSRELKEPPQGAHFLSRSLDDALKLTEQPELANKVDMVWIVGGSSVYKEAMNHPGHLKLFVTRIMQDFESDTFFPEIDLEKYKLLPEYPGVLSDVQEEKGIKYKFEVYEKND
Description: Binding of polyphenols to free rHDHFR by fluorescence quenching titration. As to the method:
Natural and synthetic derivatives of tea catechins have shown to be good inhibitors of human DHFR [7, 11, 16, 18]. To determine the ability of natural and synthetic polyphenols to bind DHFR, we performed a structure-activity study by analyzing the binding of these polyphenols to DHFR using fluorescence quenching. Effective binding to free recombinant human DHFR (rHDHFR) was determined by measuring the decrease in enzyme fluorescence that occurs upon the formation of the enzyme-inhibitor complex. […] The dissociation constants of the synthetic compounds were on the same order as those of the natural analogues, indicating the high DHFR binding capacities of these new derivatives.
The dissociation constants for the binding of polyphenols to free recombinant human DHFR (rHDHFR) were determined by fluorescence titration in an automatic-scanning FluoroMax-3 (Jobin Ybon, Horiba, Edison, NJ, USA) spectrofluorometer with 1.0 cm light path cells and a 150 W mercury-xenon light source. The formation of a binary complex between the enzyme (2.5 × 10^−7 M) and the ligand (from 0 to 40 µM) was followed by measuring the quenching of the tryptophan fluorescence of the enzyme upon the addition of microliter volumes of a concentrated stock solution of ligand. Experiments were performed at pH 7.5 in a buffer containing 2-(N-morpholino)ethanesulfonic acid (Mes, 0.025 M), sodium acetate (0.025 M), tris(hydroxymethyl)aminomethane (Tris 0.05 M), and NaCl (0.1 M). The temperature was controlled at 25 °C using a Haake D1G circulating bath with a heater and cooler. Fluorescence emission spectra were recorded when the human DHFR fluorescence was excited at 290 nm, and titrations were performed as described elsewhere.

Data set [3] concerns the target T2, human serum albumin (HSA) (Homo sapiens, UniProt P02768).
T2 construct: purchased Sigma-Aldrich
Nature of the data set: HSA binding by fluorescence quenching. As to the method:
Fluorescence measurements were made on an automatic scanning Perkin-Elmer LS50B spectrofluorometer with 1.0 cm light path cells equipped with a 150 W xenon (XBO) light source. […] A plot of log (F0-F)/F against log [Q] was used to determine the values of KA and n from the intercept and the slope, respectively. Binding of TMECG, EGCG, and EC to HSA was determined as specified for the BSA binding studies.

Data set [4] addresses T3, bovine serum albumin (BSA) (Bos taurus, UniProt P02769).
T3 construct: purchased Sigma-Aldrich
Description: Competitive site-marker (warfarin, ibuprofen) binding to BSA. The following applies: for Kd: Binding constant (KA), BSA, 25 °C. Here is the method: Next, the site selective binding of both EGCG and TMCG to BSA was analyzed. The capability of serum albumins to bind to aromatic and heterocyclic compounds is largely dependent on the existence of two major binding regions, namely site-I and site-II [25]. Warfarin and ibuprofen are fluorescence probes whose primary binding sites to BSA are site-I and site-II, respectively.
To identify the binding sites of EGCG and TMCG in BSA, the displacements of warfarin and ibuprofen (known to bind at site I and site II, respectively) were followed fluorometrically. Equimolar solutions of BSA and warfarin (5 × 10^−6 M each) were mixed for 1 h and titrated with EGCG and TMCG in separate experiments. Similar solutions containing equimolar ibuprofen and BSA were prepared and separately titrated with EGCG and TMCG to identify the binding sites of EGCG and TMCG with BSA. Titration was followed fluorometrically using an excitation wavelength of 280 nm.

Data set [5] addresses T3, bovine serum albumin (BSA). Description: BSA binding by fluorescence quenching. The source says: Upon progressive additions of various concentrations of EGCG and TMCG to BSA, the emission intensity decreases, as shown in Figure 4(a). The quenching of the fluorescence intensity of BSA implies that the catechins bind at close proximity to the tryptophan and tyrosine residues and that the molecular arrangement of BSA is affected by the interactions. […] The binding constants (KA) for the BSA-EGCG and BSA-TMCG complexes are 1.54 × 10^7 M^−1 and 1.9 × 10^5 M^−1, respectively (Table 4), and their plots are shown in Figure 4(b). […] In light of these findings, it can be reasoned that the binding affinity to BSA is higher for the galloylated catechin than for the methylated one, which emphasises that the three phenolic groups can enhance hydrogen bonding between BSA and EGCG [25].
Fluorescence measurements were made on an automatic scanning Perkin-Elmer LS50B spectrofluorometer with 1.0 cm light path cells equipped with a 150 W xenon (XBO) light source. In all experiments, the fluorescence of BSA (5 × 10^−6 M) in 50 mM phosphate buffer of pH 7.5 was followed by excitation at 280 nm. The binding affinities of EGCG and TMCG with BSA in terms of binding constants were determined using the following equation [25]: log (F0−F)/F = log KA + n log [Q](1) where KA is the binding constant, n is the number of binding sites, F0 is the fluorescence intensity of free BSA and F is the consequent fluorescence upon the addition of catechins (Q). A plot of log (F0-F)/F against log [Q] was used to determine the values of KA and n from the intercept and the slope, respectively.

The nature of data set [6]: UV-visible absorption spectra at different pH (ionization state). Format: physicochemical. The following applies: for Effect of pH on absorption spectra: UV-visible spectra, pH range 5.0–9.0 for TMCG and TMECG. Here is the method: It has been shown that the protonation state of methotrexate, trimethoprim, and pyrimethamine modulates the binding of these antifolates to DHFRs from several sources. […] The absorbance maximum at 278 nm undergoes a bathochromic displacement to 328 nm, which is greatest at alkaline pH (pH > 9.0).
To determine if the spectral changes in the SYCG and SYECG solutions with pH were due to an irreversible oxidation reaction or to a reversible protonation step, a pH titration experiment was carried out. An alkaline solution of SYCG and SYECG (pH 8.5) was acidified to pH 2.5 by the addition of dilute HCl. A change in the spectra was observed, indicating a reversible protonation reaction. The spectral changes with pH observed in SYCG and SYECG can be attributed to the hydroxyl group para on the ester-bonded gallate moiety. At acidic pH, these derivatives are mainly present as protonated species, whereas at basic pH or values near neutrality, these derivatives evolve toward the deprotonated species, which are stabilized by resonance (Scheme 3). […] As described, an important factor that decreases catechin bioavailability might be their inability to easily cross cellular membranes by passive diffusion. The presence of several hydroxyl groups in these molecules gives them a high hydrophilic character, which increases the difficulty of passing across lipid membranes.
Ultraviolet-visible absorption spectra of catechins at different pHs were recorded on a UV-Vis Perkin-Elmer Lambda-2 spectrophotometer with a spectral bandwidth of 1 nm at a scan speed of 60 nm s^−1. The experiments were performed in the same buffer as described for DHFR binding studies, and the ionic strength remained constant at an optimum value of 0.15 over the pH range that was used. The pH of the reaction was measured before and after the experiment.

The mark [7] stands for this setting: Table 2, restates Table 1, read-out: KD, order of binding strengths to rHDHFR depending on D-ring substitution.
The mark [8] stands for this setting: pH 7.5, 25 °C, fluorescence titration, read-out: Dissociation constant KD of free rHDHFR.
Where [9] appears, read: determined as for BSA binding studies, read-out: Binding affinity to HSA (KA) (converted).

T3 sequence (P02769 25-607): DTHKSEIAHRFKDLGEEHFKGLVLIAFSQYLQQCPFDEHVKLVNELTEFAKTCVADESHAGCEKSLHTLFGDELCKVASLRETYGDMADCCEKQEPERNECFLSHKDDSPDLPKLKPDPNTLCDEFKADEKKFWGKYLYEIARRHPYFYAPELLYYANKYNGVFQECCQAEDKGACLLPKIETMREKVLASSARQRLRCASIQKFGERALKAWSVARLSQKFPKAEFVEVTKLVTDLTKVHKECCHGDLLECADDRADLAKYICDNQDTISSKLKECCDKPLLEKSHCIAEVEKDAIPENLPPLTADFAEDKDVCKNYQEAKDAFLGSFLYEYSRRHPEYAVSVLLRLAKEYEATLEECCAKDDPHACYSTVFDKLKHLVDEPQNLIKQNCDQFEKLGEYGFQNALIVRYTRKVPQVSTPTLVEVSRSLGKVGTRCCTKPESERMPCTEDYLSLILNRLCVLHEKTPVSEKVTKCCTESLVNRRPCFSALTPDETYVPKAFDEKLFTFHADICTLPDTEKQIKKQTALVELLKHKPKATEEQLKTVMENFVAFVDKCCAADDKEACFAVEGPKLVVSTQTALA
T2 sequence (P02768 25-609): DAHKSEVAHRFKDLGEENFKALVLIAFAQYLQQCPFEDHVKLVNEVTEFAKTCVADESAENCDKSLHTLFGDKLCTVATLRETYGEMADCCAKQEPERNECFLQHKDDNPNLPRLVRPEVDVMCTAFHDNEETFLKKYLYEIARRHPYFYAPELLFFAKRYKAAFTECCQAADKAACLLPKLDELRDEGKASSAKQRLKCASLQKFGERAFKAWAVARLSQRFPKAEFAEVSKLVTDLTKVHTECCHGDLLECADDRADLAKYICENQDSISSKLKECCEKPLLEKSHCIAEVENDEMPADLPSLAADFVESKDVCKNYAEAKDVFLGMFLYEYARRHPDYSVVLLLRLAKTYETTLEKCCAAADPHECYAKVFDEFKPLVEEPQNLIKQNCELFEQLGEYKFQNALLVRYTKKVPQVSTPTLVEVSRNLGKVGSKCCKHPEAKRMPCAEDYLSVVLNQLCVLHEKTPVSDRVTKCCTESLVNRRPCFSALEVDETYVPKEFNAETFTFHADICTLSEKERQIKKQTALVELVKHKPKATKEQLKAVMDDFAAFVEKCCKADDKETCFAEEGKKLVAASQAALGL

`COc1cc(C(=O)O[C@H]2Cc3c(OC(C)=O)cc(OC(C)=O)cc3O[C@@H]2c2ccc(OC(C)=O)c(OC(C)=O)c2)cc(OC)c1OC(C)=O` [ASYCG, 5,7,3’,4’,4’’-penta-O-acetyl-3-O-(3,5-dimethoxybenzoyl)-catechin] registered a melting point of 88 to 93 °C. In addition, the IC50 in data set [1] (Homo sapiens, SK-MEL-28, 144 h) was found to be 37.4 ± 4 µM.
Consider `O=C(O[C@H]1Cc2c(O)cc(O)cc2O[C@@H]1c1ccc(O)c(O)c1)c1cc(O)c(O)c(O)c1` [CG, catechin-3-gallate, reference compound], for which the values for the Kd in data set [2] (setting [7]) and in data set [2] (setting [8]) were 0.56 µM and 0.56 ± 0.07 µM, respectively. Further, in data set [1] (Homo sapiens, SK-MEL-28, 144 h), the IC50 is 82.2 ± 8 µM.
Take `Oc1cc(O)c2c(c1)O[C@H](c1ccc(O)c(O)c1)[C@H](O)C2` [EC, epicatechin]: in data set [3] (setting [9]), the Kd was 312 µM.
As to `O=C(O[C@@H]1Cc2c(O)cc(O)cc2O[C@@H]1c1ccc(O)c(O)c1)c1cc(O)c(O)c(O)c1` [ECG, epicatechin-3-gallate, reference compound], the results for the Kd in data set [2] (setting [7]) and in data set [2] (setting [8]) were 0.81 µM and 0.81 ± 0.09 µM, respectively. Further, in data set [1] (Homo sapiens, SK-MEL-28, 144 h), the IC50 is more than 100 µM.
As to `O=C(O[C@@H]1Cc2c(O)cc(O)cc2O[C@@H]1c1cc(O)c(O)c(O)c1)c1cc(O)c(O)c(O)c1` [EGCG, epigallocatechin-3-gallate, reference compound], the Kd was 0.0649 µM in data set [4] (site marker: Blank); 0.082 µM in data set [4] (site marker: Ibuprofen); 7.69 µM in data set [4] (site marker: Warfarin); 0.0649 µM in data set [5]; 3.85 µM in data set [3]. Besides, the “Site selective binding to BSA” value in data set [4] (competition with warfarin (site-I) and ibuprofen (site-II)) is recorded as “higher specificity for site-I”. Moreover, the “Number of binding sites n” value in data set [5] (catechin-BSA complex, double logarithmic plot) was “approximately 1”.
In turn, `COc1cc(C(=O)O[C@H]2Cc3c(O)cc(O)cc3O[C@@H]2c2ccc(O)c(O)c2)cc(OC)c1OC(C)=O` [MASYCG, 3-O-(4-acetoxy-3,5-dimethoxybenzoyl)-catechin] showed a melting point of 118 to 122 °C. In addition, in data set [1] (Homo sapiens, SK-MEL-28, 144 h), the IC50 worked out at 60.9 ± 6 µM.
`COc1cc(C(=O)OC2Cc3c(O)cc(O)cc3OC2c2ccc(O)c(O)c2)cc(OC)c1O` (centres unmarked) [SYCG, 3-O-(4-hydroxy-3,5-dimethoxybenzoyl)-catechin] displayed a melting point of 110 to 114 °C. The Kd in data set [2] (setting [7]) is 0.72 µM. For the same compound, the Kd in data set [2] (setting [8]) stood at 0.72 ± 0.1 µM. For the same compound, in data set [6], the “Effect of pH on absorption spectra” value is “strongly affected by the pH” and the “Ionization state at physiologic pH” value is given as “partially in their ionic form”. Further, in data set [1] (Homo sapiens, SK-MEL-28, 144 h), the IC50 is 126 ± 10 µM.
For `COc1cc(C(=O)OC2Cc3c(O)cc(O)cc3OC2c2ccc(O)c(O)c2)cc(OC)c1O` (centres unmarked) [SYECG, 3-O-(4-hydroxy-3,5-dimethoxybenzoyl)-epicatechin], the melting point lay within 120 to 123 °C. In data set [2] (setting [7]), the Kd was 0.77 µM. Also, the Kd in data set [2] (setting [8]) was determined as 0.77 ± 0.07 µM. Moreover, in data set [6], the “Effect of pH on absorption spectra” value is listed as “strongly affected by the pH” and the “Ionization state at physiologic pH” value is given as “partially in their ionic form”. In data set [1], the IC50 was 199 ± 12 µM.
In the case of `COc1cc(C(=O)O[C@@H]2Cc3c(O)cc(O)cc3O[C@@H]2c2ccc(O)c(O)c2)cc(OC)c1OC` [TMECG], the Kd is 2.1 µM in data set [2] (setting [7]), 2.1 ± 0.2 µM in data set [2] (setting [8]) and 23.8 µM in data set [3] (setting [9]). For the same compound, the “Effect of pH on absorption spectra” value in data set [6] is reported as “no significant changes”. Further, the IC50 in data set [1] (Homo sapiens, SK-MEL-28, 144 h) turned out to be 2.5 ± 0.6 µM.

For the origin of these results see PMC6270263, “Factors Influencing the Antifolate Activity of Synthetic Tea-Derived Catechins” (Molecules, 2013).
